target: recombinant human integrin αvβ6 (Homo sapiens (Human), UniProt P06756+P18564); experiment: Solid phase integrin αvβ6 binding assay; settings: plate-coated integrin; recombinant TGFβ1 LAP 0.67 ug/ml as ligand; 2 hours at 25° C.; read-out: αvβ6 Inhibition IC50 (nM) - range
Outline: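 Plates coated with recombinant human αvβ6 (2 ug/ml); compounds and TGFβ1 LAP (0.67 ug/ml) incubated 2 h at 25° C in TBS buffer with 0.5 mM MnCl2. Bound LAP detected with biotin-anti-hLAP and peroxidase-streptavidin; IC50 from four-parameter logistic fit.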

recombinant human integrin αvβ6, sequence (P06756 31-992): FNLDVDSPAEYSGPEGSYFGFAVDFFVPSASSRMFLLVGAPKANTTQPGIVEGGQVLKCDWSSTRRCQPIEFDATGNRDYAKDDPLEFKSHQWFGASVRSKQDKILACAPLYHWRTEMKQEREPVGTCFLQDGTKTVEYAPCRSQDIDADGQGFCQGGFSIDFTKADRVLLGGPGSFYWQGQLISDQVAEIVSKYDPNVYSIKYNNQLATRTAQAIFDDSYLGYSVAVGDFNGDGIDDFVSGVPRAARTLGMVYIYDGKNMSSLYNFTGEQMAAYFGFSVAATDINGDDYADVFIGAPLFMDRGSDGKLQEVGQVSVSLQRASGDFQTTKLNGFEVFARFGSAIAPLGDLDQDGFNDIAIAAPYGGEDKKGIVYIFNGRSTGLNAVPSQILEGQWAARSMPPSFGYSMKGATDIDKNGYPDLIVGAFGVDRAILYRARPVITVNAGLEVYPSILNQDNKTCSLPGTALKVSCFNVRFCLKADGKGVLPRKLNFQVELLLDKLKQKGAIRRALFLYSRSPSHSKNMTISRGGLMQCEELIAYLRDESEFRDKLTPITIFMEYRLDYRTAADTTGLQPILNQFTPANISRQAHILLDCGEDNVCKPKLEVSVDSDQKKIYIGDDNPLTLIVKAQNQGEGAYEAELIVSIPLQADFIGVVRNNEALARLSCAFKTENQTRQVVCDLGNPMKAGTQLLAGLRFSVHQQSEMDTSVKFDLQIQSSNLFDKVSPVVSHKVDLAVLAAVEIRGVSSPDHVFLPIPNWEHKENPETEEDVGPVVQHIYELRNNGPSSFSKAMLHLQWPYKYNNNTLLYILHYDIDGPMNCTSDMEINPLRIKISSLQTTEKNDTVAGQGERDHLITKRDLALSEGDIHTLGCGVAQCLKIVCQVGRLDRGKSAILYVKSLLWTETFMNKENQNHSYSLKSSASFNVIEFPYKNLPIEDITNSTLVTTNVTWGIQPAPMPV
recombinant human integrin αvβ6, sequence (P18564 22-707): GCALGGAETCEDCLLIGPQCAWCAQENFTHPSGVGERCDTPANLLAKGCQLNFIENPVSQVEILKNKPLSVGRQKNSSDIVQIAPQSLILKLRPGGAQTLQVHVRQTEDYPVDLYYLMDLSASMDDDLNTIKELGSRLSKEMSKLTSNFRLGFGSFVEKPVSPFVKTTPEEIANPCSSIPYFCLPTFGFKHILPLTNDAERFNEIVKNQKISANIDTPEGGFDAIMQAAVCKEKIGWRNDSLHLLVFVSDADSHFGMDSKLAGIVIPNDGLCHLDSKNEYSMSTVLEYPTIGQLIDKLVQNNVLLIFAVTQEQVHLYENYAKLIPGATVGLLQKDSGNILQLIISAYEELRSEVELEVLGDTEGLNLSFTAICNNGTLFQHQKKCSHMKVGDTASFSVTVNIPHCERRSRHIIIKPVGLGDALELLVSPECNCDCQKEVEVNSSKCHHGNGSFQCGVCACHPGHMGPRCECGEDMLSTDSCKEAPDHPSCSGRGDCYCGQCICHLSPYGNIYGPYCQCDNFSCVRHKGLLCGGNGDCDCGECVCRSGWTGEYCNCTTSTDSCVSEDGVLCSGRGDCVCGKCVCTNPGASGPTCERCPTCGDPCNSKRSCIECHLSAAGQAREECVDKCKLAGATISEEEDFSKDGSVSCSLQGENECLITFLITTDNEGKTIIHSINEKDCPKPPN

| IC50 [nM] | Compound |
| --- | --- |
| < 50 | O=C(N[C@@H](CCN1CC[C@@H](CCc2ccc3c(n2)NCCC3)C1)C(=O)O)c1cnccn1 [Compound 50] |
| 50 to 250 | CCC(CC)C(=O)N[C@@H](CCN1CCC[C@@](F)(CCc2ccc3c(n2)NCCC3)C1)C(=O)O [Compound 94] |
| 50 to 250 | O=C(N[C@@H](CCN1CCC[C@@](F)(CCc2ccc3c(n2)NCCC3)C1)C(=O)O)c1ccccc1 [Compound 52] |
| 50 to 250 | O=C(N[C@@H](CCN1CC(OCCc2ccc3c(n2)NCCC3)C1)C(=O)O)[C@H]1CCN(c2ccccn2)C1 [Compound 132] |
| > 1000 | O=C(N[C@H](CCN1CC[C@H](CCc2ccc3c(n2)NCCC3)C1)C(=O)O)c1c(Cl)cccc1Cl [Compound 147] |
| < 50 | O=C(N[C@@H](CCN1CC[C@@H](CCc2ccc3c(n2)NCCC3)C1)C(=O)O)c1cccc(N2CCOCC2)c1 [Compound 15a, (S)-2-(3-morpholinobenzamido)-4-((R)-3-(2-(5,6,7,8-tetrahydro-1,8-naphthyridin-2-yl)ethyl)pyrrolidin-1-yl)butanoic acid] |
| 50 to 250 | CC1(C(=O)N[C@@H](CCN2CC[C@@H](CCc3ccc4c(n3)NCCC4)C2)C(=O)O)CCOCC1 [Compound 22a, (S)-2-(4-methyltetrahydro-2H-pyran-4-carboxamido)-4-((R)-3-(2-(5,6,7,8-tetrahydro-1,8-naphthyridin-2-yl)ethyl)pyrrolidin-1-yl)butanoic acid] |
| < 50 | O=C(N[C@@H](CCN1CCCC(CCc2ccc3c(n2)NCCC3)C1)C(=O)O)c1ccccc1 (some centres unmarked) [Compound 54] |
| 250 to 1000 | CC(C)(C(=O)N[C@@H](CCN1CC[C@@H](OCCc2ccc3c(n2)NCCC3)C1)C(=O)O)c1ccccc1 [Compound 118] |
| < 50 | O=C(N[C@@H](CCN1CC[C@@H](CCc2ccc3c(n2)NCCC3)C1)C(=O)O)c1cccc(-c2ccccc2)c1 [Compound 56] |
| < 50 | O=C(O)[C@H](CCN1CC[C@@H](CCc2ccc3c(n2)NCCC3)C1)NC(=O)[C@@H]1CCCN1Cc1ncccn1 [Compound 90] |
| < 50 | O=C(O)[C@H](CCN1CC[C@@H](CCc2ccc3c(n2)NCCC3)C1)NC(=O)[C@@H]1COCCN1Cc1ccccc1 [Compound 89] |
| 50 to 250 | O=C(NC(CCN1CC[C@@H](CCc2ccc3c(n2)NCCC3)C1)C(=O)O)C1CCN(C2CC2)CC1 (some centres unmarked) [23a and 23c] |
| < 50 | O=C(N[C@@H](CCN1CC[C@@H](CCc2ccc3c(n2)NCCC3)C1)C(=O)O)c1ccc2c(cnn2C(F)F)c1 [Compound 30a, (S)-2-(1-(difluoromethyl)-1H-indazole-5-carboxamido)-4-((R)-3-(2-(5,6,7,8-tetrahydro-1,8-naphthyridin-2-yl)ethyl)pyrrolidin-1-yl)butanoic acid] |
| 50 to 250 | COCCOc1cccc(C(=O)N[C@@H](CCN2CCC[C@@](F)(CCc3ccc4c(n3)NCCC4)C2)C(=O)O)c1 [Compound 100] |
| < 50 | O=C(N[C@@H](CCN1CC[C@@H](CCc2ccc3c(n2)NCCC3)C1)C(=O)O)c1cccc(-c2cncs2)c1 [Compound 66] |
| < 50 | O=C(N[C@@H](CCN1CC(OCCc2ccc3c(n2)NCCC3)C1)C(=O)O)c1c(Cl)cccc1Cl [Compound 115] |
| > 1000 | O=C(NC1CCN(CC[C@H](NC(=O)C2CCC(F)(F)CC2)C(=O)O)CC1)c1ccc2c(n1)NCCC2 [Compound 33] |
| 250 to 1000 | CC(C)(Cc1ccccc1)C(=O)N[C@@H](CCN1CC(OCCc2ccc3c(n2)NCCC3)C1)C(=O)O [Compound 130] |
| < 50 | O=C(N[C@@H](CCN1CC[C@@H](CCc2ccc3c(n2)NCCC3)C1)C(=O)O)c1ccncc1 [Compound 18a, (S)-2-(isonicotinamido)-4-((R)-3-(2-(5,6,7,8-tetrahydro-1,8-naphthyridin-2-yl)ethyl)pyrrolidin-1-yl)butanoic acid] |
